Test results reported in patent publication US6831199B1, “Pyrimidine compounds and derivatives thereof” (G. D. Searle & Co., priority 1995, dated 2004).
Structures can show the parent of a compound that is named as a salt. Where two headings read alike, the source gives them in different places.

Legend:
[1] = biological target: T1, Human fibrinogen receptor (αIIbβ3) (Homo sapiens, UniProt P05106+P08514); assay: Purified IIb/IIIa receptor assay (solid phase receptor assay, competition with biotinylated vitronectin); type: binding
T1 construct: Human fibrinogen receptor (αIIbβ3) was purified from outdated platelets; from tissue; host or cells: outdated human platelets
Outline: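 Competition format: 1 nM biotinylated vitronectin plus test compound (highest 1.0×10^−4 M), 2 h at room temperature on wells coated with platelet-derived αIIbβ3. Buffer was TBS containing 1.0 mM Ca, Mg, Mn, pH 7.4. HRP anti-biotin readout at 450 nm; normalized to maximum binding, four-parameter curve fit.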

platelet rich plasma = assay: Human platelet rich plasma assay (ADP induced platelet aggregation); type: cell-based; details: read-out: Human PRP
Outline: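 Citrated platelet-rich plasma from aspirin-free healthy human donors was stirred at 37 °C and preincubated with compound for 1 min. Aggregation was then triggered with ADP (added as a 200 uM solution) and recorded photometrically for 3 min. Dose–response curves were built from % inhibition of the maximal saline-control response.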

[2] = biological target: T2, Human vitronectin receptor (αvβ3) (Homo sapiens, UniProt P05106+P06756); assay: Vitronectin adhesion assay (solid phase receptor assay, competition with biotinylated vitronectin); type: binding
T2 construct: Human vitronectin receptor (αvβ3) was purified from human placenta; from tissue; host or cells: human placenta
Outline: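 Purified human αvβ3 coated overnight at 4 °C in TBS with 1.0 mM Ca++, Mg++, Mn++, pH 7.4; compounds (top final 1.0×10^−4 M) competed with 1 nM biotinylated vitronectin for 2 h at room temperature. Bound ligand detected by HRP anti-biotin/OPD at A450; values normalized to no-competitor controls, four-parameter curve fit.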

M21 human melanoma cells = assay: M21 melanoma cell adhesion assay (αvβ3-dependent adhesion to human fibrinogen-coated plates); type: cell-based
Protocol: M21 MELANOMA CELL ADHESION ASSASY
This assay involves an αvβ3-dependent adhesion of M21 human melanoma cells to human fibrinogen-coated plastic tissue culture dishes.
Fibrinogen was purified from human plasma. Fibronectin and plasminogen were eliminated from the preparation by passing the sample over gelatin-sepharose 4B and lysine-sepharose 4B resins, respectively. The fibrinogen is diluted to 10 μg/mL in coating buffer ([…] Tris-HCl, 150 mM NaCl, pH 7.4). 100 μL of diluted fibrinogen is added to each well of a 96-well Immulon 2 microtiter plate (Dynatech; Chantilly, Va.) and allowed to coat overnight at 4° C. Plates are blocked with 1% BSA (Miles/Pentex; Kankakee, Ill.) in adhesion buffer (Hank's balanced salt solution without Ca^++ or Mg^++ [HBSS−−], 50 mM Hepes, 1 mg/mL BSA, pH 7.4) for 1 hour at 37° C.
M21 human melanoma cells were provided by Dr. J. Smith, La Jolla Cancer Research Institute. M21 cells are harvested from tissue culture flasks by washing with HBSS−− and adding cell dissociation solution (Sigma) and incubating for 5 minutes at 37° C. Harvested cells are washed 3 times with adhesion assay buffer containing 200 μM Mn^++. Cells are counted and suspended to a density of 2×10^6/mL in adhesion assay buffer containing 200 μM Mn^++. M21 cells are pre-incubated with antagonists of αvβ3 for 30 minutes at room temperature. Following the pre-incubation, the solutions containing a mixture of cells and antagonists are added to each well of the microtiter plate and allowed to bind for 30 minutes at 37° C.
Following adhesion, plates are gently washed 3 times with 200 μL of wash buffer (50 mM Tris-HCl, 150 mM NaCl, pH 7.4) using large bore pipet tips. Plates are briefly blotted dry and 100 μL of cell lysis buffer (50 mM sodium acetate, pH 5.0, 0.5% Triton X-100, 0.3 mg/mL p-nitrophenyl phosphate [Sigma] is added to each well. Plates are incubated for 60 minutes at 37° C. and 50 μL of 1N NaOH is added to stop the reaction. The absorbance of the wells at […] is read using an automatic plate reader.

[3] = Homo sapiens, M21, read-out: M21 Melanoma Cells IC50
[4] = Homo sapiens, M21; read-out: M21 Melanoma Cells IC50
[5] = trifluoroacetate salt; read-out: M21 Melanoma Cells IC50
[6] = ADP induced platelet aggregation in human platelet rich plasma
[7] = Homo sapiens, Platelet, ADP induced platelet aggregation in human platelet rich plasma

`N=C(N)Nc1cccc(C(=O)NCC(=O)NC(CC(=O)O)c2cccnc2)c1` (racemic) [Example 2, (±)β-[[2-[[[3-[(aminoiminomethyl)amino]phenyl]carbonyl]amino]acetyl]amino]pyridine-3-propanoic acid, bis(trifluoroacetate)salt] was tested. Which IC50 ([1]; read-out: IIb/IIIa IC50) did it give?
Its IC50 is 0.0512 µM.

What about the IC50 (platelet rich plasma; Homo sapiens, Platelet) of the same compound?
The IC50 was 200 µM.

And the IC50 ([2]; read-out: AvB3 IC50)?
The IC50 was 0.00054 µM.

What about the IC50 (M21 human melanoma cells; [3]) of the same compound?
Its IC50 is 0.00025 µM.

How did the IC50 ([1]; read-out: IIb/IIIa IC50) turn out when `CCOC(=O)CC(NC(=O)CNC(=O)c1cccc(NC(=N)N)c1)c1ccccc1` (racemic) [Example 3, (±)ethyl β-[[2-[[[3-[(aminoiminomethyl)amino]phenyl]carbonyl]amino]acetyl]amino]benzenepropanoate, trifluoroacetate salt] was run?
Its IC50 is 72.9 µM.

What about the IC50 ([2]; read-out: AvB3 IC50) of the same compound?
Its IC50 is 0.498 µM.

What about the IC50 (M21 human melanoma cells; [4]) of the same compound?
Its IC50 is 3.05 µM.

Which IC50 ([1]; read-out: IIb/IIIa IC50) does the source give for `O=C(O)CC(NC(=O)CNC(=O)c1cccc(NC(=O)NCc2ccccc2)c1)c1cccnc1` (racemic) [Example 106, (±)β-[[2-[[[3-[[[(phenylmethyl)amino]carbonyl]aminophenyl]carbonyl]amino]acetyl]-amino]pyridine-3-propanoic acid] here?
Its IC50 is 3.14 µM.

What about the IC50 ([2]; read-out: AvB3 IC50) of the same compound?
Its IC50 is 0.00079 µM.

And the IC50 (M21 human melanoma cells; read-out: M21 Melanoma Cells IC50)?
The IC50 was 0.00081 µM.

What does the source list for `C#C[C@H](CC(=O)O)NC(=O)CNC(=O)c1cccc(NC(=N)N)c1` [Example 69, 3S-[[2-[[[3-[(aminoiminomethyl)amino]phenyl]carbonyl]amino]acetyl]amino]-4-pentynoic acid, trifluoroacetate salt]?
IC50 ([1]; read-out: IIb/IIIa IC50): 0.0336 µM; IC50 (platelet rich plasma; ADP induced platelet aggregation in human platelet rich plasma, trifluoroacetate salt): > 200 µM; IC50 ([2]; read-out: AvB3 IC50): 0.00092 µM; IC50 (M21 human melanoma cells; [5]): 0.00095 µM

What does the source list for `C#C[C@@H](CC(=O)O)NC(=O)CNC(=O)c1cccc(NC(=N)N)c1` [Example 70, 3R-[[2-[[[3-[(aminoiminomethyl)amino]phenyl]carbonyl]amino]acetyl]amino]-4-pentynoic acid, trifluoroacetate salt]?
IC50 ([1]; read-out: IIb/IIIa IC50): 3.24 µM; IC50 (platelet rich plasma; [6]): > 200 µM; IC50 ([2]; read-out: AvB3 IC50): 0.063 µM; IC50 (M21 human melanoma cells; [5]): 0.924 µM

With `N=C(N)Nc1cccc(C(=O)NCC(=O)N[C@H](COC(=O)c2ccccc2N)CC(=O)O)c1` [Example 94, 2S-[[2-[[[3-[[aminoiminomethyl]amino]phenyl]carbonyl]amino]acetyl]amino]-3-carboxypropyl 2-aminobenzoate, bis(trifluoroacetate)salt, monohydrate] as the compound, how does the IC50 ([1]; IIb/IIIa IC50) read?
Its IC50 is 0.101 µM.

What about the IC50 (platelet rich plasma; Homo sapiens, Platelet) of the same compound?
Its IC50 is over 200 µM.

And the IC50 ([2]; AvB3 IC50)?
The IC50 was 0.00116 µM.

And the IC50 (M21 human melanoma cells; [3])?
The IC50 was 0.001 µM.

With `N=C(N)Nc1cccc(C(=O)NCC(=O)NCCC(=O)O)c1` [Example 97, N-[2-[[[3-[(aminoiminomethyl)amino]phenyl]carbonyl]amino]acetyl]-β-alanine] as the compound, how does the IC50 ([1]; read-out: IIb/IIIa IC50) read?
Its IC50 is 1.17 µM.

And the IC50 ([2]; read-out: AvB3 IC50)?
The IC50 was 0.0269 µM.

What about the IC50 (M21 human melanoma cells; [4]) of the same compound?
Its IC50 is 0.163 µM.

`NC(=O)Nc1cccc(C(=O)NCC(=O)NC(CC(=O)O)c2cccnc2)c1` (stereo not drawn) [Example 110, β-[[2-[[[3-(aminocarbonylamino)phenyl]carbonyl]amino]acetyl]amino]pyridine-3-propanoic acid, trifluoroacetate salt] was tested. Which IC50 ([1]; read-out: IIb/IIIa IC50) did it give?
The IC50 was 1.86 µM.

What about the IC50 (platelet rich plasma; [6]) of the same compound?
Its IC50 is over 200 µM.

And the IC50 ([2]; read-out: AvB3 IC50)?
Its IC50 is 0.0045 µM.

What about the IC50 (M21 human melanoma cells; [5]) of the same compound?
Its IC50 is 0.177 µM.

Which results are given for `O=C(O)CC(NC(=O)CNC(=O)c1cccc(NC(=O)NCc2ccccc2)c1)c1ccccc1` (stereo not drawn) [Example 119, β-[[2-[[[3-[[[(phenylmethyl)amino]carbonyl]amino]phenyl]carbonyl]amino]acetyl]amino]benzenepropanoic acid]?
IC50 ([1]; read-out: IIb/IIIa IC50): 11.1 µM; IC50 (platelet rich plasma; Homo sapiens, Platelet): > 20 µM; IC50 ([2]; read-out: AvB3 IC50): 0.00361 µM; IC50 (M21 human melanoma cells; [3]): 0.0904 µM

Which IC50 ([1]; read-out: IIb/IIIa IC50) does the source give for `CN/C(=N\C#N)Nc1cccc(C(=O)NCC(=O)NC(CC(=O)O)c2ccccc2)c1` (stereo not drawn) [Example 137, β-[[2-[[[3-[[(cyanoimino)(methylamino)methyl]amino]phenyl]carbonyl]amino]acetyl]amino]benzenepropanoic acid] here?
Its IC50 is 6.5 µM.

And the IC50 (platelet rich plasma; [7])?
The IC50 was over 200 µM.

What about the IC50 ([2]; read-out: AvB3 IC50) of the same compound?
Its IC50 is 0.0162 µM.

With `N#C/N=C(\N)Nc1cccc(C(=O)NCC(=O)NC(CC(=O)O)c2ccccc2)c1` (stereo not drawn) [Example 138, β-[[2-[[[3-[[amino(cyanoimino)methyl]amino]phenyl]carbonyl]amino]acetyl]amino]benzenepropanoic acid] as the compound, how does the IC50 ([1]; read-out: IIb/IIIa IC50) read?
Its IC50 is 5.82 µM.

And the IC50 (platelet rich plasma; [7])?
Its IC50 is over 200 µM.

And the IC50 ([2]; read-out: AvB3 IC50)?
Its IC50 is 0.0369 µM.

For `CCN/C(=N\C#N)Nc1cccc(C(=O)NCC(=O)NC(CC(=O)O)c2ccccc2)c1` (stereo not drawn) [Example 139, β-[[2-[[[3-[[(cyanoimino)(ethylamino)methyl]amino]phenyl]carbonyl]amino]acetyl]amino]benzenepropanoic acid], which IC50 ([1]; read-out: IIb/IIIa IC50) is on record?
The IC50 was 16.1 µM.

And the IC50 (platelet rich plasma; [7])?
Its IC50 is over 200 µM.

What about the IC50 ([2]; read-out: AvB3 IC50) of the same compound?
The IC50 was 0.0238 µM.

With `C#C[C@H](CC(=O)O)NC(=O)CNC(=O)c1cccc(N/C(=N/C#N)NC)c1` [Example 141, 3S-[[2-[[[3-[[(cyanoimino)(methylamino)methyl]amino]phenyl]carbonyl]amino]acetyl]amino]-4-pentynoic acid] as the compound, how does the IC50 ([1]; read-out: IIb/IIIa IC50) read?
The IC50 was 0.125 µM.

What about the IC50 (platelet rich plasma; [7]) of the same compound?
The IC50 was over 200 µM.

What about the IC50 ([2]; read-out: AvB3 IC50) of the same compound?
The IC50 was 0.00309 µM.

For `N#C/N=C(/NCc1ccccn1)Nc1cccc(C(=O)NCC(=O)NC(CC(=O)O)c2ccccc2)c1` (stereo not drawn) [Example 144, β-[[2-[[[3-[[(cyanoimino)[2-pyridinylmethyl)amino]methyl]amino]phenyl]carbonyl]amino]acetyl]amino]benzenepropanoic acid, bis(trifluoroacetate)salt], which IC50 ([1]; read-out: IIb/IIIa IC50) is on record?
The IC50 was 5.83 µM.

What about the IC50 (platelet rich plasma; [7]) of the same compound?
Its IC50 is over 200 µM.

What about the IC50 ([2]; read-out: AvB3 IC50) of the same compound?
The IC50 was 0.0553 µM.

Which results are given for `N#C/N=C(/NCc1cccnc1)Nc1cccc(C(=O)NCC(=O)NC(CC(=O)O)c2ccccc2)c1` (stereo not drawn) [Example 146, β-[[2-[[[3-[[(cyanoimino)[3-pyridinylmethyl)amino]methyl]amino]phenyl]carbonyl]amino]acetyl]amino]benzenepropanoic acid, bis(trifluoroacetate)salt]?
IC50 ([1]; read-out: IIb/IIIa IC50): 0.879 µM; IC50 (platelet rich plasma; [7]): > 200 µM; IC50 ([2]; read-out: AvB3 IC50): 0.0143 µM

How did the IC50 ([1]; read-out: IIb/IIIa IC50) turn out when `N=C(N)Nc1cc(C(=O)NCC(=O)NC(CC(=O)O)c2ccccc2)ccc1Cl` (stereo not drawn) [Example 150, β-[[2-[[[3-[(aminoiminomethyl)amino]-4-chlorophenyl)carbonyl]amino]acetyl]amino]benzenepropanoic acid] was run?
The IC50 was 0.631 µM.

What about the IC50 (platelet rich plasma; [7]) of the same compound?
The IC50 was over 200 µM.

What about the IC50 ([2]; read-out: AvB3 IC50) of the same compound?
The IC50 was 0.00574 µM.

For `N=C(N)Nc1ccc(Cl)c(C(=O)NCC(=O)NC(CC(=O)O)c2ccccc2)c1` (stereo not drawn) [Example 155, β-[[2-[[[5-[(aminoiminomethyl)amino]-2-chlorophenyl]carbonyl]amino]acetyl]amino]benzenepropanoic acid, trifluoroacete salt], which IC50 ([1]; read-out: IIb/IIIa IC50) is on record?
The IC50 was 0.0811 µM.

And the IC50 (platelet rich plasma; [7])?
The IC50 was over 200 µM.

And the IC50 ([2]; read-out: AvB3 IC50)?
The IC50 was 0.00505 µM.

With `NC(=O)/N=C(/N)Nc1cccc(C(=O)NCC(=O)NC(CC(=O)O)c2cc(Cl)cc(Cl)c2)c1` (stereo not drawn) [Example 162, β-[[(2-[[[3-[[amino(aminocarbonyl)imino]methyl]amino]phenyl]carbonyl]amino]acetyl]amino]-3,5-dichlorobenzenepropanoic acid, trifluoroacetate salt] as the compound, how does the IC50 ([1]; read-out: IIb/IIIa IC50) read?
Its IC50 is 1.34 µM.

What about the IC50 (platelet rich plasma; [7]) of the same compound?
Its IC50 is over 200 µM.

And the IC50 ([2]; read-out: AvB3 IC50)?
The IC50 was 0.00462 µM.
